The values that follow come from patent US20240150321A1, “PYRAZOLYLSULFONAMIDE COMPOUNDS AND THEIR USE IN THERAPY” (HOTSPOT THERAPEUTICS, INC., priority 2022, published 2024).

Assay [1] has as its target Avi-tagged FL MALT-1 (Homo sapiens (Human), UniProt Q9UDY8). As to the kind of experiment: MALT-1 Fluorogenic Peptide Cleavage Assay (MALT1 inhibition assay). The assay is classed as biochemical. To be noted: Ac-LRSR-AMC peptide substrate, 30 min pre-incubation, 90 min reaction at room temperature. Put shortly:
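Full-length Avi-tagged human MALT-1 (40 nM working stock) pre-incubated 30 min at RT with compound in 25 mM HEPES pH 6.89, 660 mM sodium citrate, 1 mM TCEP, […], 0.05% CHAPS, 2% DMSO. Ac-LRSR-AMC added at Km (50 μM working stock) or 10×Km (280 μM working stock); 90 min at RT, AMC fluorescence (ex 342/em 441 nm), IC50 from % inhibition curves.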

Assay [2] concerns NF-kB reporter in Jurkat cells. The assay is described as follows: NF-kB reporter assay in Jurkat cells stimulated with aCD3/aCD28/PMA. The class given is cell-based. To be noted: Jurkat cells, 1 hr compound pre-incubation, aCD3/aCD28/PMA stimulation 4 hr, One-Glo readout, read-out: NF-kB Reporter Assay IC50. The essentials:
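Jurkat cells (25,000/well, serum-free RPMI) were pre-incubated 1 h at 37° C with serially diluted compound, then stimulated 4 h with aCD3/aCD28/PMA at final […]. NF-kB reporter activity was read by One-Glo luminescence; IC50 values reported.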
(Reporter assays use an easily measured gene product as a stand-in for the process of interest.)

pIC50: −log10 of the molar value. Like-named read-outs stand apart in the source and are kept apart here.

Avi-tagged FL MALT-1, sequence (Q9UDY8 whole entry): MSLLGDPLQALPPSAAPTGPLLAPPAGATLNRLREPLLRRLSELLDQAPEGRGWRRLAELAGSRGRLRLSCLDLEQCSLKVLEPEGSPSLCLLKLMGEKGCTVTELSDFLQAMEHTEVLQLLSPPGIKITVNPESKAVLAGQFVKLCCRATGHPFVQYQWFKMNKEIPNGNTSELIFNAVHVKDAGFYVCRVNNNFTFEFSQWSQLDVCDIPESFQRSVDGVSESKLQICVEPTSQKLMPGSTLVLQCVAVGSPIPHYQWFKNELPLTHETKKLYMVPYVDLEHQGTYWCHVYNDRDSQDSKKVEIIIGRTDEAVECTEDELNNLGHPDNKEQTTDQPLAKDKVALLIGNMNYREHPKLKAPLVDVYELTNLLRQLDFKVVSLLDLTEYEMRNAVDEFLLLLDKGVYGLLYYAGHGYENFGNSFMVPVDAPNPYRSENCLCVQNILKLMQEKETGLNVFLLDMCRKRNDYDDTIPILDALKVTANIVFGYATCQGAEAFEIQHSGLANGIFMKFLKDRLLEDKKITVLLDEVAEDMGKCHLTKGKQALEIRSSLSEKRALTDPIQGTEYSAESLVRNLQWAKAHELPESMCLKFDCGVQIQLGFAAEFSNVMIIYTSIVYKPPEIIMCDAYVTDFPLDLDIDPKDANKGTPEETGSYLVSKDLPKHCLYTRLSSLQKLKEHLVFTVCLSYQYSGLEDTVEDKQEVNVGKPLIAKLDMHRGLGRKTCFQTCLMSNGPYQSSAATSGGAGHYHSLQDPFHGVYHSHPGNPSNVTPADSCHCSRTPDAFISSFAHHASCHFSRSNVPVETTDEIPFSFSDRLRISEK

The term pIC50 denotes the IC50 on a negative log10 scale, so that one unit is a factor of ten. As to `Cn1nc2c(NS(=O)(=O)c3cnn(-c4cc(C(F)(F)F)ccn4)c3)cccc2c1Cl` [Compound I-105, N-(3-chloro-2-methyl-2H-indazol-7-yl)-1-(4-(trifluoromethyl)pyridin-2-yl)-1H-pyrazole-4-sulfonamide], the pIC50 in assay [1] is under 5.60; in assay [2] (Homo sapiens) it was 5.60 to 6.00.

Regarding `CC1CC(F)(c2ccnc(-n3cc(S(=O)(=O)Nc4cccc5cnn(C)c45)cn3)c2)C1` (stereo not drawn) [Compound I-394], the negative-log IC50 (pIC50) in assay [1] is under 5.60; in assay [2] (Homo sapiens), over 6.40.

Take `Cn1cc2ccc(F)c(NS(=O)(=O)c3cnn(-c4cc(C(F)(F)F)ccn4)c3)c2n1` [Compound I-104, N-(6-fluoro-2-methyl-2H-indazol-7-yl)-1-(4-(trifluoromethyl)pyridin-2-yl)-1H-pyrazole-4-sulfonamide]: the pIC50 in assay [1] and in assay [2] (Homo sapiens) was under 5.60 throughout.

Take `COc1ncc2cnn(C)c2c1NS(=O)(=O)c1cnn(-c2cc(C(C)O)ccn2)c1` (single isomer, unassigned) [Compound I-293, 1-(4-(1-hydroxyethyl)pyridin-2-yl)-N-(6-methoxy-1-methyl-1H-pyrazolo[4,3-c]pyridin-7-yl)-1H-pyrazole-4-sulfonamide]: the negative logarithm of the IC50 (pIC50) in assay [1] was at least 6.40; in assay [2], 6.00 to 6.40.

With `CC[C@@](C)(O)c1ccnc(-n2cc(S(=O)(=O)Nc3c(OC)ccc4cnn(C)c34)cn2)c1` [Compound I-316], the results for the pIC50 in assay [1] and in assay [2] (Homo sapiens) were 5.60 to 6.00 and over 6.40, respectively.

On to `COc1ccc2cnn(C)c2c1NS(=O)(=O)c1cnn(-c2ccc(C(F)(F)F)cn2)c1` [Compound I-22, N-(6-Methoxy-1-Methyl-1H-Indazol-7-yl)-1-(5-(Trifluoromethyl)Pyridin-2-yl)-1H-Pyrazole-4-Sulfonamide], for which the pIC50 is at least 6.40 in assay [1] and over 6.40 in assay [2] (Homo sapiens).

For the compound `CN1CC(F)(c2ccnc(-n3cc(S(=O)(=O)Nc4cccc5cnn(C)c45)cn3)c2)C1` [Compound I-251, 1-(4-(3-fluoro-1-methylazetidin-3-yl)pyridin-2-yl)-N-(1-methyl-1H-indazol-7-yl)-1H-pyrazole-4-sulfonamide], the pIC50 is under 5.60 in assay [1] and over 6.40 in assay [2] (Homo sapiens).

Turning to `COC1CN(c2ccnc(-n3cc(S(=O)(=O)Nc4cccc5cnn(C)c45)cn3)c2)C1` [Compound I-441, 1-(4-(3-methoxyazetidin-1-yl)pyridin-2-yl)-N-(1-methyl-1H-indazol-7-yl)-1H-pyrazole-4-sulfonamide], the pIC50 in assay [1] is under 5.60; in assay [2] (Homo sapiens), over 6.40.

Turning to `Cn1ncc2cccc(NS(=O)(=O)c3cnn(-c4cc(N5CCC(F)(F)C5)ccn4)c3)c21` [Compound I-431, 1-[4-(3,3-difluoropyrrolidin-1-yl)pyridin-2-yl]-N-(1-methylindazol-7-yl)pyrazole-4-sulfonamide], the pIC50 was under 5.60 in assay [1] and over 6.40 in assay [2] (Homo sapiens).

As for `Cn1ncc2cccc(NS(=O)(=O)c3cnn(-c4cc(C5(O)CC(C)(C)C5)ccn4)c3)c21` [Compound I-477, 1-(4-(1-hydroxy-3,3-dimethylcyclobutyl)pyridin-2-yl)-N-(1-methyl-1H-indazol-7-yl)-1H-pyrazole-4-sulfonamide], the pIC50 in assay [1] is under 5.60; in assay [2] (Homo sapiens), over 6.40.

As for `COc1ncc2cnn(C)c2c1NS(=O)(=O)c1cnn(-c2cc(C(C)O)ccn2)c1` (single isomer, unassigned) [Compound I-292, 1-(4-(1-hydroxyethyl)pyridin-2-yl)-N-(6-methoxy-1-methyl-1H-pyrazolo[4,3-c]pyridin-7-yl)-1H-pyrazole-4-sulfonamide], the negative-log IC50 (pIC50) in assay [1] and in assay [2] (Homo sapiens) was 6.00 to 6.40 throughout.

On to `[2H]C([2H])([2H])c1ccc2cnn(C)c2c1NS(=O)(=O)c1cnn(-c2cc(C(F)(F)F)ccn2)c1` [Compound I-71, N-(1-Methyl-6-(Methyl-D3)-1H-Indazol-7-yl)-1-(4-(Trifluoromethyl)Pyridin-2-yl)-1H-Pyrazole-4-Sulfonamide], for which the negative logarithm of the IC50 (pIC50) in assay [1] was at least 6.40; in assay [2] (Homo sapiens), over 6.40.

Regarding `COC[C@@](C)(OC)c1ccnc(-n2cc(S(=O)(=O)Nc3cccc4cnn(C)c34)cn2)c1` [Compound I-301], the values for the pIC50 in assay [1] and in assay [2] (Homo sapiens) were under 5.60 and over 6.40, respectively.

Regarding `COc1ncc2cnn(C)c2c1NS(=O)(=O)c1cnn(-c2cc(C(F)(F)F)nn2C)c1` [Compound I-241], the negative-log IC50 (pIC50) in assay [1] and in assay [2] (Homo sapiens) was under 5.60 throughout.

On to `Cn1ncc2cccc(NS(=O)(=O)c3cnn(-c4cc(Cl)ccn4)c3)c21` [Compound I-86, 1-(4-Chloropyridin-2-yl)-N-(1-Methyl-1H-Indazol-7-yl)-1H-Pyrazole-4-Sulfonamide], for which the negative-log IC50 (pIC50) in assay [1] was under 5.60; in assay [2] (Homo sapiens), over 6.40.

With `COc1ccc2cnn(C)c2c1NS(=O)(=O)c1cnn(-c2cc(N3CC(C)(C(N)=O)C3)ccn2)c1` [Compound I-472], the pIC50 in assay [1] was under 5.60; in assay [2] (Homo sapiens) it was 5.60 to 6.00.

Regarding `Cn1ncc2cccc(NS(=O)(=O)c3cnn(-c4cc(C5(F)CCC5)ccn4)c3)c21` [Compound I-94, 1-(4-(1-fluorocyclobutyl)pyridin-2-yl)-N-(1-methyl-1H-indazol-7-yl)-1H-pyrazole-4-sulfonamide], the negative-log IC50 (pIC50) in assay [1] was under 5.60; in assay [2] (Homo sapiens) it was over 6.40.

For the compound `COC[C@H](O)c1ccnc(-n2cc(S(=O)(=O)Nc3cccc4cnn(C)c34)cn2)c1` [Compound I-305], the negative logarithm of the IC50 (pIC50) in assay [1] is under 5.60; in assay [2] (Homo sapiens) it was 6.00 to 6.40.

Consider `COc1ccc2cnn(C)c2c1NS(=O)(=O)c1cnn(-c2cc(C(F)(F)F)n(C)n2)c1` [Compound I-266, N-(6-methoxy-1-methyl-1H-indazol-7-yl)-1′-methyl-5′-(trifluoromethyl)-1′H-[1,3′-bipyrazole]-4-sulfonamide], for which the pIC50 is at least 6.40 in assay [1] and over 6.40 in assay [2] (Homo sapiens).

Take `Cc1n[nH]c2cccc(NS(=O)(=O)c3cnn(-c4cc(C5CC5)ccn4)c3)c12` [Compound I-89, 1-(4-Cyclopropylpyridin-2-yl)-N-(3-Methyl-1H-Indazol-4-yl)-1H-Pyrazole-4-Sulfonamide]: the figures for the pIC50 in assay [1] and in assay [2] (Homo sapiens) were under 5.60 and over 6.40, respectively.

Turning to `COc1ccc2cnn(C)c2c1NS(=O)(=O)c1cnn(-c2cc([C@@H](C)O)ccn2)c1` [Compound I-340, (R)-1-(4-(1-hydroxyethyl)pyridin-2-yl)-N-(6-methoxy-1-methyl-1H-indazol-7-yl)-1H-pyrazole-4-sulfonamide], the results for the negative logarithm of the IC50 (pIC50) in assay [1] and in assay [2] (Homo sapiens) were at least 6.40 and over 6.40, respectively.

Turning to `COc1ccc2cnn(C)c2c1NS(=O)(=O)c1cnn(-c2cc(C3(C#N)CCCC3)ccn2)c1` [Compound I-449, 1-(4-(1-cyanocyclopentyl)pyridin-2-yl)-N-(6-methoxy-1-methyl-1H-indazol-7-yl)-1H-pyrazole-4-sulfonamide], the negative logarithm of the IC50 (pIC50) in assay [1] is 5.60 to 6.00; in assay [2] (Homo sapiens), over 6.40.

Take `Cn1ncc2cccc(NS(=O)(=O)c3cnn(-c4cc(C5(O)COC5)ccn4)c3)c21` [Compound I-101, 1-(4-(3-hydroxyoxetan-3-yl)pyridin-2-yl)-N-(1-methyl-1H-indazol-7-yl)-1H-pyrazole-4-sulfonamide]: the results for the pIC50 in assay [1] and in assay [2] (Homo sapiens) were under 5.60 and over 6.40, respectively.

Consider `CN(C)c1ccc2cnn(C)c2c1NS(=O)(=O)c1cnn(-c2ccnc(C(F)(F)F)c2)c1` [Compound I-7, N-(6-(Dimethylamino)-1-Methyl-1H-Indazol-7-yl)-1-(2-(Trifluoromethyl)Pyridin-4-yl)-1H-Pyrazole-4-Sulfonamide], for which the pIC50 in assay [1] was at least 6.40; in assay [2] (Homo sapiens) it was 6.00 to 6.40.

Take `COc1ccc2cnn(C)c2c1NS(=O)(=O)c1cnn(-c2cc(N3CC(C)(F)C3)ccn2)c1` [Compound I-444, 1-(4-(3-fluoro-3-methylazetidin-1-yl)pyridin-2-yl)-N-(6-methoxy-1-methyl-1H-indazol-7-yl)-1H-pyrazole-4-sulfonamide]: the pIC50 in assay [1] is under 5.60; in assay [2] (Homo sapiens) it was over 6.40.

`Cn1ncc2cccc(NS(=O)(=O)c3cnn(-c4cc(N5CCC6(CC6)C5)ccn4)c3)c21` [Compound I-410, 1-(4-{5-azaspiro[2.4]heptan-5-yl}pyridin-2-yl)-N-(1-methylindazol-7-yl)pyrazole-4-sulfonamide]: the negative-log IC50 (pIC50) was under 5.60 in assay [1] and over 6.40 in assay [2] (Homo sapiens).

`COC[C@](C)(OC)c1ccnc(-n2cc(S(=O)(=O)Nc3cccc4cnn(C)c34)cn2)c1` [Compound I-300]: the pIC50 is under 5.60 in assay [1] and over 6.40 in assay [2] (Homo sapiens).

Consider `COC1(c2ccnc(-n3cc(S(=O)(=O)Nc4cccc5cnn(C)c45)cn3)c2)CC(F)C1` (stereo not drawn) [Compound I-99, 1-(4-(3-fluoro-1-methoxycyclobutyl)pyridin-2-yl)-N-(1-methyl-1H-indazol-7-yl)-1H-pyrazole-4-sulfonamide], for which the negative-log IC50 (pIC50) in assay [1] is under 5.60; in assay [2] (Homo sapiens), over 6.40.

Turning to `Cn1ncc2cccc(NS(=O)(=O)c3cnn([C@@H]4CCCN(CC(F)(F)F)C4)c3)c21` [Compound I-328], the negative logarithm of the IC50 (pIC50) in assay [1] was under 5.60; in assay [2] (Homo sapiens), 5.60 to 6.00.

Consider `COc1ccc2cnn(C)c2c1NS(=O)(=O)c1cnn(-c2cc(N3CCC(F)(F)C3)ccn2)c1` [Compound I-435, 1-(4-(3,3-difluoropyrrolidin-1-yl)pyridin-2-yl)-N-(6-methoxy-1-methyl-1H-indazol-7-yl)-1H-pyrazole-4-sulfonamide], for which the pIC50 in assay [1] is under 5.60; in assay [2] (Homo sapiens), over 6.40.
